Measured values as given in patent publication US20220264878A1, “HERBICIDAL COMPOSITION CONTAINING R-TYPE PYRIDYLOXY CARBOXYLIC ACID DERIVATIVE AND USE THEREOF” (Qingdao Kingagroot Chemical Compound Co., Ltd., priority 2019, published 2022).

Legend:
Type in all cases: in vivo
Echinochloa caudate = test: Soil sealing treatment, pot culture, fresh weight inhibition (Tables 99, 100)
Description: A method for investigating absolute number was employed, wherein whole seedlings of survival weeds were cut off with a blade along the soil surface, and the fresh weight of the weeds was weighed with an analytical balance. For dead weeds, the fresh weight thereof was zero.
Theoretical fresh weight inhibition rate of a combination of two active ingredients in each group was calculated by the Gowing method (E0=X+Y−X*Y/100), and then compared with an actually measured inhibition rate (E), thereby effect of the combination (hereafter referred to as combined effect) on weeds was evaluated: the value of E-E0, which was greater than 10%, corresponded to a synergistic effect, the value of E-E0, which was less than −10%, corresponded to an antagonistic effect, and the value of E-E0, which was from −10% to 10%, corresponded to an additional effect. […] Wherein, in the formula, X represented the fresh weight inhibition rate of the active ingredient A in a dosage of P, and Y represented the fresh weight inhibition rate of the active ingredient B in a dosage of Q.
Echinochloa crusgalli var zelayensis were collected in Huai'an of Jiangsu Province; Echinochloa caudate were collected in Pingluo of Ningxia Province; Echinochloa oryzoides were collected in Qiqiha'er of Heilongjiang Province.
The culture was carried out in a controllable sunlight greenhouse at 20 to 30° C., in natural light, and relative humidity of 57% to 72%. […] The test soil was placed quantitatively to ¾ of the pots and then watered from the bottom of the pots to completely wet the soil to saturation. The pretreated test weed seeds were uniformly sowed on the surface, then covered with 0.5-2 cm soil according to the seed size, and ready-for use 24 hours after sowing.
The technical materials were all dissolved in acetone, and diluted with an aqueous solution containing 0.1% emulsifier T-80. The dilution is performed as required.
A ratio of A to the active ingredient B and amounts thereof in each group depends on the characteristics and toxicity of the two agents, as well as the main application purpose of a corresponding formulation. Based on the pre-tests in this study, the dosage of A and the active ingredient B applied alone and in combination were shown in the tables. Water containing the solvent and emulsifier same with the above groups but free of the agents was used as a blank control.
3 pots with 30 weed seeds per pot were treated in one treatment with 4 replications per treatment.
The pots which were sowed and mulched were evenly placed on a platform with an area of 0.5 m^2, and a solution of agents was sprayed on soil surface thereof by the 3WP-2000-type walking spray tower at a dosage of […] and at a spray pressure of 0.3 MPa. After all the solution was sprayed, the valve was closed. After 30 seconds, the door of the spray tower was opened, and the nutritional bowl was taken out. Then the valve was opened, and the spray tube was cleaned by spraying 50 ml of water.
This section was same as the section 4) in the post-emergence treatment by performing foliage spray, and was not repeated herein.

Capsella bursa-pastoris = test: Post-emergence foliage spray, pot culture, fresh weight inhibition (Tables 1-48, 51-98, 101-148; 24 days)
Procedure, shortened: (§1)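 Greenhouse pot-grown weeds (15 per pot, 3 pots, 4 replicates) at the 5–6-leaf (grasses) or 6–7-leaf (broadleaf) stage were sprayed once on foliage at 450 kg/ha spray volume, 0.3 MPa. Acetone solutions were diluted in 0.1% Tween-80. Aboveground fresh weight versus blank control was recorded after 24 days.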

Alopecurus japonicus = test: as above
Procedure, shortened: as §1

Ipomoea purpurea = test: as above; settings: Table 98
Procedure, shortened: as §1

Abutilon theophrasti = test: as above
Procedure, shortened: as §1

Amaranthus retroflexus = test: as above
Procedure, shortened: as §1

Compound: C[C@@H](Oc1nc(F)c(Cl)c(N)c1Cl)C(=O)O [Compound A1]
- Control effect (%) of A applied alone in corresponding dose (Echinochloa caudate; Table 99, 75 g a.i./ha): 23.4%
- Control effect (%) of A applied alone in corresponding dose (Echinochloa caudate; Table 99, 150 g a.i./ha): 47.2%
- Control effect (%) of A applied alone in corresponding dose (Echinochloa caudate; Table 100, 75 g a.i./ha): 23.4%
- Control effect (%) of A applied alone in corresponding dose (Echinochloa caudate; Table 100, 150 g a.i./ha): 47.2%
- Control effect (%) of A applied alone in corresponding dose (Capsella bursa-pastoris; A1 7.5 g a.i./ha): 36.2%
- Control effect (%) of A applied alone in corresponding dose (Capsella bursa-pastoris; A1 15 g a.i./ha): 75.9%
- Control effect (%) of A applied alone in corresponding dose (Alopecurus japonicus; A1 7.5 g a.i./ha): 25.6%
- Control effect (%) of A applied alone in corresponding dose (Alopecurus japonicus; A1 15 g a.i./ha): 48.1%
- Control effect (%) of A applied alone in corresponding dose (Alopecurus japonicus; A1 75 g a.i./ha): 25.6%
- Control effect (%) of A applied alone in corresponding dose (Alopecurus japonicus; A1 150 g a.i./ha): 48.1%
- Control effect (%) of A applied alone in corresponding dose (Ipomoea purpurea; 75 g a.i./ha): 37.7%
- Control effect (%) of A applied alone in corresponding dose (Ipomoea purpurea; 150 g a.i./ha (r12), r13 prints 75 + 7.5, A:B 20:1): 59.5%
- Control effect (%) of A applied alone in corresponding dose (Abutilon theophrasti; A1 7.5 g a.i./ha): 44.3%
- Control effect (%) of A applied alone in corresponding dose (Abutilon theophrasti; A1 15 g a.i./ha): 79.6%

Compound: C[C@@H](Oc1nc(F)c(Cl)c(N)c1Cl)C(=O)OCC1CCCO1 (stereo partly shown) [Compound A2]
- Control effect (%) of A applied alone in corresponding dose (Amaranthus retroflexus; A2 75 g a.i./ha): 22.9%
- Control effect (%) of A applied alone in corresponding dose (Amaranthus retroflexus; A2 150 g a.i./ha): 52.4%
